The record followed here is patent US12331044B2, “Inhibitors of histone deacetylase useful for the treatment or prevention of HIV infection” (Merck Sharp & Dohme LLC, priority 2018, dated 2025).

Assay [1] concerns the target human HDAC3/SMRT heterodimer (Homo sapiens (Human), UniProt O15379).
Assay [2] deals with human HDAC1 (Homo sapiens (Human), UniProt Q13547).
The subject of assay [3] is KARN cells (Jurkat 2C4). Description: cells. The note with it: Homo sapiens.
For assay [4], the target named is human HDAC8 (Homo sapiens (Human), UniProt Q9BY41). Description: HDAC8 inhibition assay (modified FLUOR DE LYS, 384-well). The format is biochemical. The note with it: […] enzyme, 200 μM substrate BML-KI178, 3 h pre-incubation; read-out: HDAC8 IC50.
Procedure: The histone deacetylase activities of HDAC1, HDAC2, HDAC3, HDAC6, and HDAC8 were measured in modified FLUOR DE LYS assays in 384-well format. In this assay, HDAC enzymes are initially incubated with an F-acetyl (or -trifluoroacetyl)-L-lysine-containing substrate with a C-terminal amide having aminomethylcoumarin as the amine component. HDACs cleave the F-acetyl group, rendering the resulting product susceptible to AMC cleavage by trypsin. The released AMC is then detected by its fluorescence. […] All steps were performed at room temperature (23° C.). The assay was performed by pre-incubating serial dilutions of test compounds with the target HDAC prior to initiation with substrate. […] Final conditions used for each assay were: 1. […] The reactions were stopped and developed by addition of 30 ul of HDAC developer solution containing a saturating level of HDAC inhibitor as follows: 1. […] For data analysis, background subtracted product (fluorescence) vs. time data for each inhibitor concentration was fitted using a 4-parameter fit.
The target of assay [5] is human HDAC2 (Homo sapiens (Human), UniProt Q92769). Description: HDAC2 inhibition assay (modified FLUOR DE LYS, 384-well). The format is biochemical. Particulars: […] enzyme, 40 μM substrate BML-KI104, 3 h pre-incubation; read-out: HDAC2 IC50.
Assay [6] addresses HDAC6 (Homo sapiens (Human), UniProt Q9UBN7).
Setting [7] is: read-out: Karn EC50 nM 0.1% NHS, 0.1% normal human serum, luciferase induction, 2 μM SAHA = 100%.
Setting [8] is: read-out: Karn EC50 nM 5% NHS, 5% normal human serum, luciferase induction, 2 μM SAHA = 100%.

Like-named read-outs stand apart in the source and are kept apart here.

Chain of human HDAC8 (Q9BY41 whole entry): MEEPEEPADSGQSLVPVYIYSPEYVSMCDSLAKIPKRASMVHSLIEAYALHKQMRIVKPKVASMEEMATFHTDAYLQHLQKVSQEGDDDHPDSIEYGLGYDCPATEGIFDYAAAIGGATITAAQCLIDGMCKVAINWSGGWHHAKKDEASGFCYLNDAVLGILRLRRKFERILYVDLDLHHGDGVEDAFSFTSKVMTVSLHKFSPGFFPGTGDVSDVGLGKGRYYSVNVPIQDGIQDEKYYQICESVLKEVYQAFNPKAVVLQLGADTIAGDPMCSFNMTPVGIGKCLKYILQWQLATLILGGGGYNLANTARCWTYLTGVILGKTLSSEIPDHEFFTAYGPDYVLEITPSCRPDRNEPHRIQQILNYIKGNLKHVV
Chain of HDAC6 (Q9UBN7 whole entry): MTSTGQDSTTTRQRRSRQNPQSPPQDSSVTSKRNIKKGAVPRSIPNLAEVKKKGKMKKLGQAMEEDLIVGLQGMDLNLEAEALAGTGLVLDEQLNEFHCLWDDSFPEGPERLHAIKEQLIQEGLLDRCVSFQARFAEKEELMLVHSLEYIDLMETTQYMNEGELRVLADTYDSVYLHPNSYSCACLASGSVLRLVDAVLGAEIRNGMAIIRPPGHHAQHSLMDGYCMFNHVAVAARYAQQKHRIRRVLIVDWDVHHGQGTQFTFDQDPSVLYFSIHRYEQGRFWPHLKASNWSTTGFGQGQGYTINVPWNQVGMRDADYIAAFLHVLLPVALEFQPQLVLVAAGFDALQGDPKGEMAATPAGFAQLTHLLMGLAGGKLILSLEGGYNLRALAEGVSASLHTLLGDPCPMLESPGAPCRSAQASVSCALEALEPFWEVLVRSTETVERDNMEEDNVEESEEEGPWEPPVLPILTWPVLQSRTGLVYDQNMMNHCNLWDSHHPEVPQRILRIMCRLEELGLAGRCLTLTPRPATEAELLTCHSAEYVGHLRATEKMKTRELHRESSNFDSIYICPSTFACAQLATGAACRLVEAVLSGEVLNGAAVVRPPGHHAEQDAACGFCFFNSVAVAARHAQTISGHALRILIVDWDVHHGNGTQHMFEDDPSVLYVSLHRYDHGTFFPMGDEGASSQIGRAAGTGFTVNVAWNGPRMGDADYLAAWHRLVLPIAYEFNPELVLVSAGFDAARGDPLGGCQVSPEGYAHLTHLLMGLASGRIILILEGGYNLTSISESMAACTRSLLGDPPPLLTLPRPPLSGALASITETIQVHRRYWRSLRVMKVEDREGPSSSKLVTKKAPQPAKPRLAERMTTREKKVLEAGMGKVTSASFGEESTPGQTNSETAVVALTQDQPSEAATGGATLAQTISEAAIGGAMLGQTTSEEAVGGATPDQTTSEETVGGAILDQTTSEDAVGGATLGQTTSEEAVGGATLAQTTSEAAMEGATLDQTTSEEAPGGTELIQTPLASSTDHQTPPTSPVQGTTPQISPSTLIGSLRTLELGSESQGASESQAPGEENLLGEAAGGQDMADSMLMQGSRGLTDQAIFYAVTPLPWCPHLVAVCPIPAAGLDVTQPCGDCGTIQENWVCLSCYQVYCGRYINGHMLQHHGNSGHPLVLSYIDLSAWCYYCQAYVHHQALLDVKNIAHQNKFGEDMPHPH
Chain of human HDAC1 (Q13547 whole entry): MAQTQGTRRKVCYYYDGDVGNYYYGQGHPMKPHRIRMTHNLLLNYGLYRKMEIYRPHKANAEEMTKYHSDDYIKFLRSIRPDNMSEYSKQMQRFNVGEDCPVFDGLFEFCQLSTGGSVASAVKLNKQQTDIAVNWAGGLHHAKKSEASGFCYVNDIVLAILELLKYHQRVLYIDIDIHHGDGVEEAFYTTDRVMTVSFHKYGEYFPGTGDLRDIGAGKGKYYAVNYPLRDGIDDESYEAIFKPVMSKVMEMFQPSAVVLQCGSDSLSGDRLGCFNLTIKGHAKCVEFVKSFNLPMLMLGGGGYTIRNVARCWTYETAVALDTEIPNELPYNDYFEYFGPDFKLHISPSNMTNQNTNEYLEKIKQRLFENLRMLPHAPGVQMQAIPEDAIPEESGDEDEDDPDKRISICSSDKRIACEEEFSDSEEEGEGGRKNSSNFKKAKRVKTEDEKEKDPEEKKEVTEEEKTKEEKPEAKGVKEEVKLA
Chain of human HDAC2 (Q92769 whole entry): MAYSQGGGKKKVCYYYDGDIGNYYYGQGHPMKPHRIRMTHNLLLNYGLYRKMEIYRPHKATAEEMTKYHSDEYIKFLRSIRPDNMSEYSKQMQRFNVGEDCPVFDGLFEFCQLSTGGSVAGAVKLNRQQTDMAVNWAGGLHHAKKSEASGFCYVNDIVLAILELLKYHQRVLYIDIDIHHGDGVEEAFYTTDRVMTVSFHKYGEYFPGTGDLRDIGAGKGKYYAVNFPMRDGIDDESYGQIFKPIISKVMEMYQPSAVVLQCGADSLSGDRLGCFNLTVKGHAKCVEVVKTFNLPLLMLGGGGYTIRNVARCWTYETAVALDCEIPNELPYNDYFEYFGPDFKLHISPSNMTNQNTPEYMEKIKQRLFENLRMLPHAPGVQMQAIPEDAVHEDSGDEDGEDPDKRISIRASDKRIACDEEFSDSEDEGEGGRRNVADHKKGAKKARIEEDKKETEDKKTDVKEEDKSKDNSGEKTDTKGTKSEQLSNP
Chain of human HDAC3/SMRT heterodimer (O15379 whole entry): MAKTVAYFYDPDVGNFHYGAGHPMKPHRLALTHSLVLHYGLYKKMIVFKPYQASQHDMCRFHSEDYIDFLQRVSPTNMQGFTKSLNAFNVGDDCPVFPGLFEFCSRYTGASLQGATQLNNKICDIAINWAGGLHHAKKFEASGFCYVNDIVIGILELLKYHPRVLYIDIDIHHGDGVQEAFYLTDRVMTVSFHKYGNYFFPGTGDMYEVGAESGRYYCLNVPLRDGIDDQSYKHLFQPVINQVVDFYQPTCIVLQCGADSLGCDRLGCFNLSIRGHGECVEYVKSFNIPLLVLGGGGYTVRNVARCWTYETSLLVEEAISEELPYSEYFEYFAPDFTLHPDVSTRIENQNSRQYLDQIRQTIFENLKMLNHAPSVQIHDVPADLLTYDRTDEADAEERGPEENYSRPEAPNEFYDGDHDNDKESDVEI
Chain of human HDAC3/SMRT heterodimer (Q9Y618 1-899 partner): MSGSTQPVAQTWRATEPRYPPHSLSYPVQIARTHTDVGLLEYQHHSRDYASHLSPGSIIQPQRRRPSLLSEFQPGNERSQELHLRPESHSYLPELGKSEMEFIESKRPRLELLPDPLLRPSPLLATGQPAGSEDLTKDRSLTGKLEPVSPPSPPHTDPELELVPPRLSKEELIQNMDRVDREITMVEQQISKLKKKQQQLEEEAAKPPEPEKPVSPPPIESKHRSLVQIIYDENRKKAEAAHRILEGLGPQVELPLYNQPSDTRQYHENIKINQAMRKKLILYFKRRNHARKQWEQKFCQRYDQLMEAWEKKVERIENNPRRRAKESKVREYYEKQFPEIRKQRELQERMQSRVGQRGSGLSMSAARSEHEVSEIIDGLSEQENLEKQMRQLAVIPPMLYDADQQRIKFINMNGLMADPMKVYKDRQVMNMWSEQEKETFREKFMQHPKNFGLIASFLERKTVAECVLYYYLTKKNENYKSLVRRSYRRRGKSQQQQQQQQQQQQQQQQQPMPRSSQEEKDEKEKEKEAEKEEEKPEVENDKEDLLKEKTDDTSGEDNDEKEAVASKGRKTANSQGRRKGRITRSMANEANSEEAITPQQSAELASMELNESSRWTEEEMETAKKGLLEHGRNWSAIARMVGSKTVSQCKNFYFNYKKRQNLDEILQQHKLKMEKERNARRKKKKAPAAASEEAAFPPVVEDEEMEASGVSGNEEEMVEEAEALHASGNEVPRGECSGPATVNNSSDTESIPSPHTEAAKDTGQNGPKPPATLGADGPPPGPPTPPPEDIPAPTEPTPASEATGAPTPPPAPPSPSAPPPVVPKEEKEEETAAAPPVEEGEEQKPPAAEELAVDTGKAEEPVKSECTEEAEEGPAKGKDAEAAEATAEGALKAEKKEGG

With `CN1CCC(C(=O)N[C@@H](CCCCCC(=O)c2nccs2)c2nc(-c3ccc(F)cc3)c[nH]2)CC1` [Example 6, (S)-N-(1-(4-(4-fluorophenyl)-1H-imidazol-2-yl)-7-oxo-7-(thiazol-2-yl)heptyl)-1-methylpiperidine-4-carboxamide], the half-inhibitory concentration (IC50) in assay [1] is 1.5 nM; in assay [2], 2.9 nM; in assay [4], 55 nM; in assay [5], 14 nM; in assay [6], 45000 nM. Moreover, the EC50 in assay [3] (setting [7]) worked out at 87 nM; in assay [3] (setting [8]), 160 nM.
On to `N[C@@H](CCCCCC(=O)c1ncco1)c1nc(-c2ccc3nn(C4CC4)cc3c2)c[nH]1` [Example 14], for which the IC50 was found to be 1.1 nM in assay [1]; 0.9 nM in assay [2]; 3100 nM in assay [4]; 4.5 nM in assay [5]; 45000 nM in assay [6]. The 50% effective concentration (EC50) is 390 nM in assay [3] (setting [7]) and 270 nM in assay [3] (setting [8]).
Take `COc1nc2ccccc2cc1-c1c[nH]c([C@@H](N)CCCCCC(=O)c2ncco2)n1` [Example 15]: the half-inhibitory concentration (IC50) turned out to be 7.3 nM in assay [1]; 5.2 nM in assay [2]; 720 nM in assay [4]; 18 nM in assay [5]; 40000 nM in assay [6]. For the same compound, the EC50 in assay [3] (setting [7]) was found to be 180 nM; in assay [3] (setting [8]) it was 670 nM.
Regarding `CC(C)n1ccc2cc(-c3cnc([C@@H](N)CCCCCC(=O)c4ncco4)[nH]3)ccc2c1=O` [Example 17], the half-maximal inhibitory concentration (IC50) in assay [1] was 4.1 nM; in assay [2] it was 2.1 nM; in assay [4], 2900 nM; in assay [5], 17 nM; in assay [6], 45000 nM. In addition, the concentration for a half-maximal effect (EC50) stood at 650 nM in assay [3] (setting [7]) and 590 nM in assay [3] (setting [8]).
Take `N[C@@H](CCCCCC(=O)c1ncco1)c1ncc(-c2ccc3nc(N4CCCC4)ccc3c2)[nH]1` [Example 19]: the half-maximal inhibitory concentration (IC50) in assay [1] was 1.5 nM; in assay [2] it was 2 nM; in assay [4], 3600 nM; in assay [5], 9.4 nM; in assay [6] it was > 1500 nM. The EC50 in assay [3] (setting [7]) was found to be 210 nM; in assay [3] (setting [8]), 420 nM.
On to `COc1cc2c(ccc(=O)n2C)cc1-c1cnc([C@@H](N)CCCCCC(=O)c2ncco2)[nH]1` [Example 21], for which the IC50 was 1.5 nM in assay [1]; 1.9 nM in assay [2]; 490 nM in assay [4]; 8.4 nM in assay [5]; > 4500 nM in assay [6]. The concentration giving a half-maximal response (EC50) in assay [3] (setting [7]) and in assay [3] (setting [8]) was 110 nM in each case.
On to `Cc1ccc2cc(-c3cnc([C@@H](N)CCCCCC(=O)c4ncco4)[nH]3)c(Cl)cc2n1` [Example 22], for which the IC50 in assay [1] came out at 6.7 nM; in assay [2], 10 nM; in assay [4] it was 1500 nM; in assay [5] it was 38 nM; in assay [6], 45000 nM. Further, the EC50 in assay [3] (setting [7]) came to 130 nM; in assay [3] (setting [8]) it was 290 nM.
In the case of `CCn1cc(-c2ccc3nc(C)ccc3c2)nc1[C@@H](N)CCCCCC(=O)c1ncco1` [Example 30, (S)-7-amino-7-(1-ethyl-4-(2-methylquinolin-6-yl)-1H-imidazol-2-yl)-1-(oxazol-2-yl)heptan-1-one], the concentration for half-maximal inhibition (IC50) in assay [1] was found to be 48 nM; in assay [2], 49 nM; in assay [4], 21000 nM; in assay [5] it was 230 nM; in assay [6] it was 38800 nM. For the same compound, the EC50 in assay [3] (setting [7]) came out at 2500 nM; in assay [3] (setting [8]), 4000 nM.
Consider `CN1CCC2(CC1)C[C@@H]2C(=O)N[C@@H](CCCCCC(=O)c1ccon1)c1nc(-c2ccccc2F)c[nH]1` [Example 39], for which the IC50 in assay [1] came out at 0.13 nM; in assay [2] it was 0.1 nM; in assay [4], 2 nM; in assay [5], 0.57 nM; in assay [6], 45000 nM. Also, the EC50 in assay [3] (setting [7]) stood at 3 nM; in assay [3] (setting [8]) it was 4 nM.
With `COc1nc2ccccc2cc1-c1c[nH]c([C@H](CCCCCC(=O)c2ccon2)NC(=O)C2CCN(C)CC2)n1` [Example 40], the IC50 in assay [1] came out at 1.5 nM; in assay [2], 1.5 nM; in assay [4] it was 3.3 nM; in assay [5] it was 1.8 nM; in assay [6], 2000 nM. Moreover, the figures for the EC50 in assay [3] (setting [7]) and in assay [3] (setting [8]) were 15 nM and 58 nM, respectively.
Take `COc1nc2ccccc2cc1-c1cnc([C@H](CCCCCC(=O)c2ncco2)NC(=O)CN(C)C)[nH]1` [Example 41]: the half-inhibitory concentration (IC50) was 0.71 nM in assay [1]; 0.39 nM in assay [2]; 65 nM in assay [4]; 2.6 nM in assay [5]; 3300 nM in assay [6]. For the same compound, the results for the EC50 in assay [3] (setting [7]) and in assay [3] (setting [8]) were 16 nM and 140 nM, respectively.
In the case of `COc1nc2ccccc2cc1-c1cnc([C@H](CCCCCC(=O)c2ncco2)NC(=O)c2cncs2)[nH]1` [Example 42], the half-inhibitory concentration (IC50) amounted to 1.5 nM in assay [1]; 1.7 nM in assay [2]; 27 nM in assay [4]; 5.4 nM in assay [5]; 13000 nM in assay [6]. The EC50 in assay [3] (setting [7]) amounted to 52 nM; in assay [3] (setting [8]), 340 nM.
`Cc1ccc2cc(-c3c[nH]c([C@H](CCCCCC(=O)c4ccon4)NC(=O)[C@H]4CC45CCN(C)CC5)n3)ccc2n1` [Example 44]: the IC50 came out at 0.26 nM in assay [1]; 0.24 nM in assay [2]; 5.7 nM in assay [4]; 0.97 nM in assay [5]; 45000 nM in assay [6]. Moreover, the EC50 was found to be 9.5 nM in assay [3] (setting [7]) and 9.1 nM in assay [3] (setting [8]).
Take `Cc1cc(C(=O)CCCCC[C@H](N)c2nc(-c3ccccc3F)c[nH]2)no1` [Example 45]: the IC50 in assay [1] stood at 19 nM; in assay [2], 8.9 nM; in assay [4], 1200 nM; in assay [5] it was 76 nM; in assay [6] it was 45000 nM. The values for the concentration for a half-maximal effect (EC50) in assay [3] (setting [7]) and in assay [3] (setting [8]) were 460 nM and 1900 nM, respectively.
`CN(C)CC(=O)N[C@@H](CCCCCC(=O)c1ncco1)c1ncc(-c2ccc3c(ccc(=O)n3C)c2)[nH]1` [Example 46]: the half-maximal inhibitory concentration (IC50) was determined as 1.5 nM in assay [1]; 1.7 nM in assay [2]; 91 nM in assay [4]; 9.6 nM in assay [5]; 45000 nM in assay [6]. In addition, the half-maximal effective concentration (EC50) came to 31 nM in assay [3] (setting [7]) and 44 nM in assay [3] (setting [8]).
On to `Cc1cc(C(=O)CCCCC[C@H](NC(=O)CN(C)C)c2nc(-c3ccccc3F)c[nH]2)no1` [Example 48], for which the IC50 stood at 0.15 nM in assay [1], 0.18 nM in assay [2], 1 nM in assay [5] and 45000 nM in assay [6]. Also, the EC50 in assay [3] (setting [7]) turned out to be 28 nM; in assay [3] (setting [8]), 69 nM.
In the case of `COc1nc2ccccc2cc1-c1cnc([C@H](CCCCCC(=O)c2ncco2)NC(=O)CCCN(C)C)[nH]1` [Example 55], the IC50 in assay [1] came out at 0.48 nM; in assay [2], 0.3 nM; in assay [5], 2.1 nM; in assay [6] it was 140 nM. In addition, the EC50 in assay [3] (setting [7]) amounted to 12 nM; in assay [3] (setting [8]) it was 32 nM.
Take `NC(CCCCCC(=O)c1ccon1)c1cnn(-c2ccc(F)cc2)c1` (stereo not shown) [Example 121, 7-amino-7-[1-(4-fluorophenyl)-1H-pyrazol-4-yl]-1-isoxazol-3-ylheptan-1-one]: the IC50 in assay [1] worked out at 14 nM; in assay [2], 15 nM; in assay [6] it was 45000 nM.
On to `N[C@@H](CCCCCC(=O)c1ncco1)c1ncc(-c2cccc(F)c2F)[nH]1` [Example 136, (7S)-7-amino-7-[5-(2,3-difluorophenyl)-1H-imidazol-2-yl]-1-(1,3-oxazol-2-yl)heptan-1-one], for which the IC50 is 100 nM in assay [1]; 110 nM in assay [2]; > 900 nM in assay [4]; 380 nM in assay [5]; > 900 nM in assay [6].
For the compound `N[C@@H](CCCCCC(=O)c1ncco1)c1ncc(-c2cc(C(F)(F)F)ccc2F)[nH]1` [Example 137, (7S)-7-amino-7-{5-[2-fluoro-5-(trifluoromethyl)phenyl]-1H-imidazol-2-yl}-1-(1,3-oxazol-2-yl)heptan-1-one], the IC50 in assay [1] was 45 nM; in assay [2], 61 nM; in assay [4] it was > 900 nM; in assay [5] it was 240 nM; in assay [6], > 900 nM.
Consider `COc1nc2ccccc2cc1-c1cnc([C@H](CCCCCC(=O)c2ncco2)NC(=O)C2(c3cnccn3)CC2)[nH]1` [Example 155, N-[(1S)-1-[5-(2-methoxyquinolin-3-yl)-1H-imidazol-2-yl]-7-(1,3-oxazol-2-yl)-7-oxoheptyl]-1-pyrazin-2-ylcyclopropanecarboxamide], for which the IC50 came out at 1.3 nM in assay [1], 0.81 nM in assay [2], 53 nM in assay [4] and 5.3 nM in assay [5]. Moreover, the concentration for a half-maximal effect (EC50) is 50 nM in assay [3] (setting [7]) and 600 nM in assay [3] (setting [8]).
With `COc1cc2nc(C)ccc2cc1-c1cnc([C@H](CCCCCC(=O)c2ncco2)NC(=O)CN2CCNCC2=O)[nH]1` [Example 159, N-[(1S)-1-[5-(7-methoxy-2-methylquinolin-6-yl)-1H-imidazol-2-yl]-7-(1,3-oxazol-2-yl)-7-oxoheptyl]-2-(2-oxopiperazin-1-yl)acetamide], the IC50 in assay [1] is 1.7 nM; in assay [2], 0.82 nM; in assay [5] it was 5.8 nM; in assay [6], 2900 nM. For the same compound, the EC50 in assay [3] (setting [7]) came out at 1500 nM; in assay [3] (setting [8]), 2900 nM.
In the case of `COc1cc2nc(C)ccc2cc1-c1cnc([C@H](CCCCCC(=O)c2ncco2)NC(=O)c2cc3n(n2)CCCC3)[nH]1` [Example 164], the 50% inhibitory concentration (IC50) is 0.87 nM in assay [1], 3.3 nM in assay [2], 18 nM in assay [5] and > 900 nM in assay [6]. The results for the EC50 in assay [3] (setting [7]) and in assay [3] (setting [8]) were 85 nM and 290 nM, respectively.
